For two compounds, Drug metabolism and S50 results are on record in ChEMBL document CHEMBL3526019, “Novel cytochrome P450-mediated ring opening of the 1,3,4-oxadiazole in setileuton, a 5-lipoxygenase inhibitor” (Drug Metab Dispos, 2011).

Data set [1] has as its target T1, Cytochrome P450 1A2 (Rattus norvegicus, UniProt P04799).
T1 sequence (P04799 whole entry): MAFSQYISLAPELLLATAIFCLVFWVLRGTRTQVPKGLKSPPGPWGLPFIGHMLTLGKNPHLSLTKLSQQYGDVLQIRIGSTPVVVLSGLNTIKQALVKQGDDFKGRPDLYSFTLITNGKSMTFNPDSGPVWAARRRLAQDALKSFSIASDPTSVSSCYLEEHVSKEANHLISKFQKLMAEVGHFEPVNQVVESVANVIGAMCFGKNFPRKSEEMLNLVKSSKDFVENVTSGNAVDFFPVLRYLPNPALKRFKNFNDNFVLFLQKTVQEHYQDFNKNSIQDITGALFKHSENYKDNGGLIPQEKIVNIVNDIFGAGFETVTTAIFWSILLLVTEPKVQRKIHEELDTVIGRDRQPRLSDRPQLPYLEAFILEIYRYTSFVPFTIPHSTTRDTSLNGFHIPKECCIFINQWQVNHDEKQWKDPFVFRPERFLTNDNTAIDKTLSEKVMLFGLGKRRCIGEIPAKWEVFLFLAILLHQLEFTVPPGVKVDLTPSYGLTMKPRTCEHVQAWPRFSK
Put plainly: Activity of CYP1A2 in rat liver microsomes assessed as enzyme mediated compound formation treated with 10 uM setileuton after 5 mins in presence of NADPH (reference value: 8.10 +/- 2.26 nM). The class given is ADME. In general terms: Liver microsomes are a subcellular fraction often used to study metabolism.

In data set [2] the target is T2, Cytochrome P450 3A2 (Rattus norvegicus, UniProt P05183).
T2 sequence (P05183 whole entry): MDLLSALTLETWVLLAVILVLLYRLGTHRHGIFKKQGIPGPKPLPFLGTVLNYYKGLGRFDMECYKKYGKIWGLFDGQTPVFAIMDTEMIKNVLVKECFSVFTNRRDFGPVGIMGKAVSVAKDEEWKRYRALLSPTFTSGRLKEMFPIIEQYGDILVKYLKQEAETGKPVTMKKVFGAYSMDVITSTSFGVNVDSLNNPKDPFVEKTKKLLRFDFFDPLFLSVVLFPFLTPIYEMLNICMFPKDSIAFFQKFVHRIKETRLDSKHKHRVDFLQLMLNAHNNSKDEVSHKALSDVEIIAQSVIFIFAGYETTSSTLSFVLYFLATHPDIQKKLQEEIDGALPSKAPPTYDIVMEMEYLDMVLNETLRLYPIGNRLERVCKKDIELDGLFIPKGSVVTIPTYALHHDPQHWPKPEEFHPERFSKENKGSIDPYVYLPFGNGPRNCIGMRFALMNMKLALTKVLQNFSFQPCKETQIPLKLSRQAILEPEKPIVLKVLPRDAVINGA
Put plainly: Activity of rat recombinant CYP3A2 expressed in baculovirus-infected insect cells assessed as enzyme-mediated compound formation treated with setileuton at 10 uM preincubated for 3 mins measured after 30 mins in presence of 1 mM NADPH. The class given is ADME. The conditions noted are these: 0.5 h.

Data set [3] has as its target T1, Cytochrome P450 1A2. Nature of the data set: Activity of CYP1A2 in rat liver microsomes assessed as enzyme mediated compound formation treated with 10 uM setileuton after 2 mins in presence of NADPH (reference value: 8.10 +/- 2.26 nM). It is filed as ADME.
The target of data set [4] is T1, Cytochrome P450 1A2. Put plainly: Activity of CYP1A2 in rat liver microsomes assessed as enzyme mediated compound formation treated with 10 uM setileuton after 2 mins in absence of NADPH (reference value: 1.93 +/- 0.40 nM). It is filed as ADME.
For data set [5], the target named is T1, Cytochrome P450 1A2. Put plainly: Activity of rat recombinant CYP1A2 expressed in baculovirus-infected insect cells assessed as enzyme-mediated compound formation treated with setileuton at 10 uM preincubated for 3 mins measured after 30 mins in presence of 1 mM NADPH. It is filed as ADME. The following applies: 0.5 h.
The target in data set [6] is T1, Cytochrome P450 1A2. Put plainly: Activity of CYP1A2 in rat liver microsomes assessed as enzyme mediated compound formation treated with 10 uM setileuton after 10 mins in presence of NADPH (reference value: 8.10 +/- 2.26 nM). It is filed as ADME.
Data set [7] is described as follows: Drug level in rat urine treated with setileuton. It is filed as ADME, tissue-based. The conditions noted are these: in vivo.
For data set [8], the target named is T1, Cytochrome P450 1A2. Put plainly: Activity of CYP1A2 in rat liver microsomes assessed as enzyme mediated compound formation treated with 10 uM setileuton after 8 mins in presence of NADPH (reference value: 8.10 +/- 2.26 nM). It is filed as ADME.
In data set [9] the target is T3, Cytochrome P450 1A1 (Rattus norvegicus, UniProt P00185).
T3 sequence (P00185 whole entry): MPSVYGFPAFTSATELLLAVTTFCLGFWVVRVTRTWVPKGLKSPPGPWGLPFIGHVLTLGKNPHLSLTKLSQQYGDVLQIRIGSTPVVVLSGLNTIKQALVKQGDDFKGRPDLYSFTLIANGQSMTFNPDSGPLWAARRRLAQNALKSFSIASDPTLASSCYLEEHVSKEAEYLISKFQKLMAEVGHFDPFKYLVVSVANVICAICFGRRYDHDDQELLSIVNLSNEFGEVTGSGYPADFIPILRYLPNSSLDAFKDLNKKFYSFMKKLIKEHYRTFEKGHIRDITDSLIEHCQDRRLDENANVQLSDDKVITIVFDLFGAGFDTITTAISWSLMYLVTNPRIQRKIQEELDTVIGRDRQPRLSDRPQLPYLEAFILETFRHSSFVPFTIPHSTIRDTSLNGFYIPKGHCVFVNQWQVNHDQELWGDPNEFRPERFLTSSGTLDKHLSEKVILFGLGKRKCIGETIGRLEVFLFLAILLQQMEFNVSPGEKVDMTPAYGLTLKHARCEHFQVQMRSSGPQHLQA
Nature of the data set: Activity of rat recombinant CYP1A1 expressed in baculovirus-infected insect cells assessed as enzyme-mediated compound formation treated with setileuton at 10 uM preincubated for 3 mins measured after 30 mins in presence of 1 mM NADPH. The class given is ADME. The following applies: 0.5 h.

Data set [10] relates to Liver microsome. Nature of the data set: Drug level in NADPH fortified rat liver microsomes treated with setileuton. The class given is ADME.
Data set [11] concerns the target T4, Cytochrome P450 3A1 (Rattus norvegicus, UniProt P04800).
T4 sequence (P04800 whole entry): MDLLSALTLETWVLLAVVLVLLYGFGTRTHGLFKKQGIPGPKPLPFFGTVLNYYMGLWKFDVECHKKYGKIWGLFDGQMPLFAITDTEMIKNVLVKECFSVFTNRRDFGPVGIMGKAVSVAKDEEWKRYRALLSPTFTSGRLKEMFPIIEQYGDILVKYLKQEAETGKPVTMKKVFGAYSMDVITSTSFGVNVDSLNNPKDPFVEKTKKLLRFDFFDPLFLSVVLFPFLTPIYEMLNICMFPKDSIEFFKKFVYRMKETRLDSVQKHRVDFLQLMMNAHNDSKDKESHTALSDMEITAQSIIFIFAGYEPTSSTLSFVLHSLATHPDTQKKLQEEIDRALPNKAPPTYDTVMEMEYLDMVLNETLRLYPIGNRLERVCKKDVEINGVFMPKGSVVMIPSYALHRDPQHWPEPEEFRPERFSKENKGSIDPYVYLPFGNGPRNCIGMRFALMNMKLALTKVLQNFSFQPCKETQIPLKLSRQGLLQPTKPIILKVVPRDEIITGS
Put plainly: Activity of rat recombinant CYP3A1 expressed in baculovirus-infected insect cells assessed as enzyme-mediated compound formation treated with setileuton at 10 uM preincubated for 3 mins measured after 30 mins in presence of 1 mM NADPH. The following applies: 0.5 h. It is filed as ADME.

In data set [12] the target is T1, Cytochrome P450 1A2. Nature of the data set: Activity of CYP1A2 in rat liver microsomes assessed as enzyme mediated compound formation treated with 10 uM setileuton after 8 mins in absence of NADPH (reference value: 1.93 +/- 0.40 nM). The class given is ADME.
In data set [13] the target is T1, Cytochrome P450 1A2. Nature of the data set: Activity of CYP1A2 in rat liver microsomes assessed as enzyme mediated compound formation treated with 10 uM setileuton after 5 mins in absence of NADPH (reference value: 1.93 +/- 0.40 nM). The class given is ADME.
Data set [14] deals with T1, Cytochrome P450 1A2. Put plainly: Activity of CYP1A2 in rat liver microsomes assessed as enzyme mediated compound formation treated with 10 uM setileuton after 10 mins in absence of NADPH (reference value: 1.93 +/- 0.40 nM). It is filed as ADME.
Data set [15] deals with T3, Cytochrome P450 1A1. Nature of the data set: Activity of rat recombinant CYP1A1 expressed in baculovirus-infected insect cells assessed as enzyme-mediated N-((4-(4-fluorophenyl)-2-oxochroman-7-yl)methyl)-2-((S)-2-hydroxy-2-(trifluoromethyl)butanoyl)hydrazinecarboxamide formation at 10 uM preincubated for 3 mins measured after 30 mins in presence of 1 mM NADPH. It is filed as ADME. The following applies: 0.5 h.

The nature of data set [16]: Drug metabolism in rat urine assessed as N-((4-(4-fluorophenyl)-2-oxochroman-7-yl)methyl)-2-((S)-2-hydroxy-2-(trifluoromethyl)butanoyl)hydrazinecarboxamide level. It is filed as ADME, tissue-based.
Data set [17] concerns the target T4, Cytochrome P450 3A1. Nature of the data set: Activity of rat recombinant CYP3A1 expressed in baculovirus-infected insect cells assessed as enzyme-mediated N-((4-(4-fluorophenyl)-2-oxochroman-7-yl)methyl)-2-((S)-2-hydroxy-2-(trifluoromethyl)butanoyl)hydrazinecarboxamide formation preincubated for 3 mins by Michaelis-Menten equation in presence of NADPH for 10 mins. The class given is ADME.

Data set [18] concerns the target T4, Cytochrome P450 3A1. Nature of the data set: Activity of rat recombinant CYP3A1 expressed in baculovirus-infected insect cells assessed as enzyme-mediated N-((4-(4-fluorophenyl)-2-oxochroman-7-yl)methyl)-2-((S)-2-hydroxy-2-(trifluoromethyl)butanoyl)hydrazinecarboxamide formation at 10 uM preincubated for 3 mins measured after 30 mins in presence of 1 mM NADPH. It is filed as ADME. The conditions noted are these: 0.5 h.

Data set [19] has as its target T1, Cytochrome P450 1A2. Put plainly: Activity of rat recombinant CYP1A2 expressed in baculovirus-infected insect cells assessed as enzyme-mediated N-((4-(4-fluorophenyl)-2-oxochroman-7-yl)methyl)-2-((S)-2-hydroxy-2-(trifluoromethyl)butanoyl)hydrazinecarboxamide formation at 10 uM preincubated for 3 mins measured after 30 mins in presence of 1 mM NADPH. The class given is ADME. The following applies: 0.5 h.

Data set [20] has as its target T2, Cytochrome P450 3A2. Nature of the data set: Activity of rat recombinant CYP3A2 expressed in baculovirus-infected insect cells assessed as enzyme-mediated N-((4-(4-fluorophenyl)-2-oxochroman-7-yl)methyl)-2-((S)-2-hydroxy-2-(trifluoromethyl)butanoyl)hydrazinecarboxamide formation at 10 uM preincubated for 3 mins measured after 30 mins in presence of 1 mM NADPH. It is filed as ADME. The conditions noted are these: 0.5 h.

For data set [21], the system named is Liver microsome. Nature of the data set: Drug metabolism in NADPH fortified rat liver microsomes assessed as N-((4-(4-fluorophenyl)-2-oxochroman-7-yl)methyl)-2-((S)-2-hydroxy-2-(trifluoromethyl)butanoyl)hydrazinecarboxamide level. It is filed as ADME.
In data set [22] the target is T1, Cytochrome P450 1A2. Nature of the data set: Activity of rat recombinant CYP1A2 expressed in baculovirus-infected insect cells assessed as enzyme-mediated N-((4-(4-fluorophenyl)-2-oxochroman-7-yl)methyl)-2-((S)-2-hydroxy-2-(trifluoromethyl)butanoyl)hydrazinecarboxamide formation preincubated for 3 mins by Michaelis-Menten equation in presence of NADPH for 10 mins. It is filed as ADME.

In data set [23] the test system is Liver microsome. Nature of the data set: Drug metabolism in rat liver microsomes assessed as N-((4-(4-fluorophenyl)-2-oxochroman-7-yl)methyl)-2-((S)-2-hydroxy-2-(trifluoromethyl)butanoyl)hydrazinecarboxamide formation by Michaelis-Menten equation in presence of 1 mM NADPH for 10 mins. The class given is ADME.

Take `CC[C@](O)(C(=O)NNC(=O)NCc1ccc2c(-c3ccc(F)cc3)cc(=O)oc2c1)C(F)(F)F`: the Drug metabolism was 57.93 nM on Cytochrome P450 1A2 [1]; “metabolite_detected” at Cytochrome P450 3A2 [2]; 29.74 nM on Cytochrome P450 1A2 [3]; 1.81 nM at Cytochrome P450 1A2 [4]; “metabolite_detected” on Cytochrome P450 1A2 [5]; 100.4 nM on Cytochrome P450 1A2 [6]. For the same compound, the Drug metabolism entry in data set [7] was “metabolite_detected”; on Cytochrome P450 1A2 [8], 74.89 nM; on Cytochrome P450 1A1 [9], “metabolite_detected”; in the data set with Liver microsome [10], “metabolite_detected”; at Cytochrome P450 3A1 [11] it was “metabolite_detected”; at Cytochrome P450 1A2 [12], 1.43 nM. The Drug metabolism at Cytochrome P450 1A2 [13] is recorded as 1.66 nM; at Cytochrome P450 1A2 [14], 1.56 nM.
With `CC[C@](O)(c1nnc(NCc2ccc3c(-c4ccc(F)cc4)cc(=O)oc3c2)o1)C(F)(F)F` [SETILEUTON], the Drug metabolism result (on Cytochrome P450 1A1 [15]; in [16]; on Cytochrome P450 3A1 [18]; at Cytochrome P450 1A2 [19]; at Cytochrome P450 3A2 [20]; with Liver microsome [21]) was “metabolite_detected” in each case. For the same compound, the values for the S50 on Cytochrome P450 3A1 [17], on Cytochrome P450 1A2 [22] and in the data set on Liver microsome [23] were 8.2 µM, 8.2 µM and 10.6 µM, respectively.
